Data taken from patent US20220017941A1, “ELECTROANALYTICAL DETERMINATION OF LEUKOCYTE ESTERASE” (Board of Regents, the University of Texas System, priority 2020, published 2022).

Tests used:
[1] = tested on: leukocyte esterase (LE); assay: Internally calibrated electrochemical continuous enzyme assay (ICECEA) of LE with ester substrate coupled to alcohol oxidase; format: biochemical, human; conditions: pH 7.40 PBS
Experimental: The original suspension of human leukocytes was diluted 10 times with a pH 7.40 0.050 M phosphate buffer saline (PBS, 154 mM NaCl) solution that contained 10 vol. % DMSO and left for 10 min to lyse the leukocytes chemically. The suspension was then sonicated for 30 s (Q125 Qsonica, 20% power) to complete the lysing process. The sonication was done in 5 s intervals with 5 s rest cycles to minimize the enzyme deactivation due to solution overheating. The lysate was centrifuged at 10000×g for 5 min, and the supernatant was transferred to a 1.70-mL microcentrifuge tube (Corning, N.Y.) and stored in a freezer at −20° C. when not in use.
Assays. The assays of LE were conducted at a N-CNT electrode by following the protocol of internally calibrated electrochemical continuous enzyme assay (ICECEA) (Zhang et. al., M.; Anal. Chem. 2013, 85, 6026-6032; Bekhit et. al., Anal. Chem. 2019, 91, 3163-3169).
(§1) The assay solution (5.00 mL) was made of pH 7.40 PBS containing both methyl pyruvate (MP) and alcohol oxidase (AOx). The current flowing through a N-CNT electrode at −0.20 V was measured continuously while a stirred assay solution was sequentially spiked with three 50-μL calibrating aliquots of H2O2 and one 50-μL aliquot of LE. This produced an ICECEA amperogram with the three current steps providing a calibration slope CS and an ascending linear current segment having an assay slope AS. The ICECEA amperograms shown were shortened to display only the linear portion of ascending current segment.
The AS and CS slopes were used to calculate the unit U of the enzymatic activity of LE:
By definition, one unit (U) of activity was equal to the amount of LE that consumed 1.0 micromole of MP per 1.0 min in a pH 7.40 PBS solution at room temperature (21° C.).
Kinetic Testing. The hypothesis formulated above was tested first by determining the kinetics of reaction 1. To ensure that the reaction was rate-limiting, the excess of AOx (25 mU) over LE (3 mU) was used. In addition, the concentration of H2O2 was kept within a linear range of calibration plot (0.50-40 μM) to avoid the non-linearity of electrode response to H2O2 from affecting kinetic measurements.
Assay of LE. The analytical merit of the coupling of reactions 1 and 2 via methanol was evaluated by using the MP to assay LE in PBS samples. To conduct the assay under the zero-order kinetics, the high concentration of MP was selected (88 μM, >10Km).
Control Experiments with Small Esters Other Than Methyl Pyruvate. […] The data in FIG. 7 underline the uniqueness of the methyl pyruvate-based method for the quantification of LE as a biomarker of infection.

[2] = Solubility in water; format: physicochemical
[3] = Non-enzymatic hydrolysis in assay solution (steady current steps before LE addition); format: physicochemical; conditions: pH 7.40 PBS assay solution, <200 s
Experimental: as §1
The slope of current segments at >200 s increased with the concentration of MP in a solution.

[4] = 1.4 nM LE, 25 mU AOx, 1-40 μM MP, Michaelis-Menten fit, RSD<10%

COC(=O)C(C)=O [MP, Methyl pyruvate]
specificity constant kcatKm^−1 [1, 4]: 2.3e+06 M⁻¹ s⁻¹
turnover number kcat [1, 4]: 15 s⁻¹
recognition of ester by LE as substrate (ascending current segment after LE addition at 200 s) ([1]; 88 μM ester, 25 mU AO, N-CNT electrode −0.20 V, FIG. 7): produced the ascending current segment
average specific activity of LE reacting with MP (slope of LE activity vs. LE concentration) ([1]; 88 μM MP, 25 mU AOx, linear up to 260 μg L^−1 LE): 12 U mg^−1
solubility in water [2]: good solubility in water
non-enzymatic hydrolysis [3]: slow on the experimental time scale
